According to patent US20220135968A1, “TREATMENT OF SYNUCLEINOPATHY AND ANIMAL MODELS OF SYNUCLEINOPATHY” (TORREY PINES LAW GROUP, PC, priority 2018, published 2022):
“Also recorded” adds a separate entry of the source.

Columns and labels:
[1] = test system: patients; details: cited from earlier work; for disease symptoms in patients: treatment reported in literature
[2] = test system: Parkinson's mouse models; details: Parkinson's mouse models (Patki, 2011); cited from earlier work
[3] = test system: MNT-1 cells; experiment: Rapamycin-induced autophagy in MNT-1 cells, melanin content as readout; assay type: cell-based, human; details: autophagy induced by rapamycin, exposure to α-MSH, FIG. 1A
Text: FIG. 1A is a bar chart depicting α-MSH disabling autophagy in MNT-1 cells when autophagy is induced by rapamycin.
(§1) FIGS. 1-6 show the induction of synucleinopathy in vitro and in vivo upon exposure to α-MSH employing the MNT-1 cell line (a gift from Michael S. Marks, Ph.D.) as an in vitro model of neuromelanin-containing neurons and the mouse administered α-MSH by intranasal route, respectively. […] Additionally, rapamycin induced autophagy was reduced in the prescence of α-MSH (FIG. 1A). Normally an increase in melanin production by MNT-1 is observed in the presence of rapamycin, since rapamycin induces autophagy and autophagy-related genes that promote melanogenesis. Melanin levels serve as a reliable readout of autophagy in MNT-1 (Kalie, 2013). Indeed, a decrease in melanin was observed when autophagy was inhibited in melanocytes (Zhang, 2015).
A human pigmented cell line MNT-1 was utilized as a model for pigmented dopaminergic neurons to assess synuclein pathology following exposure to the inducer, α-MSH. […] Additionally, cell autophagy induced by rapamycin or starvation was disabled (FIGS. 1A and 1B). […] With time, vulnerable cells begin to die and undergo apoptotic cell death as measured by caspase activity (FIG. 4B). α-Synuclein accumulation and aggregation, loss of melanin and cell death by apoptosis are cardinal features observed in synuclein diseases such as PD and MSA.

[4] = test system: MNT-1 cells; experiment: Starvation-induced (nutrient-depleted) autophagy and melanin formation in MNT-1 cells; assay type: cell-based, human; details: starved MNT-1 cells, α-MSH treated vs untreated, FIG. 1B
Text: FIG. 1B is a photograph of cells in wells of a culture plate depicting starvation-induced autophagy in cells is inhibited by α-MSH resulting in inhibition of melanin production.
as §1
A human pigmented cell line MNT-1 was utilized as a model for pigmented dopaminergic neurons to assess synuclein pathology following exposure to the inducer, α-MSH. […] With time, vulnerable cells begin to die and undergo apoptotic cell death as measured by caspase activity (FIG. 4B). α-Synuclein accumulation and aggregation, loss of melanin and cell death by apoptosis are cardinal features observed in synuclein diseases such as PD and MSA.

[5] = test system: MNT-1 cells; experiment: Immunofluorescence staining of intracellular α-synuclein in MNT-1 cells; assay type: cell-based, human
Text: as §1
FIGS. 2C, 3, and 4C show human ASIP inhibiting the effects of α-MSH in cellular models and is an effective therapeutic for preventing and reversing synuclein pathology. ASIP was tested as a therapeutic for synucleinopathy in the in vitro cellular model of neuromelanin-containing neurons modeled by MNT-1 cells. […] Immunofluorescence from the α-MSH and ASIP treated cells display similar quantity of α-synuclein compared to healthy, non-treated cells. […]

[6] = test system: MNT-1 cells; experiment: Glucose consumption of cells in culture exposed to α-MSH; assay type: cell-based, human; details: α-MSH exposed vs not exposed cells, low nutrient conditions, FIG. 4A
[7] = test system: MNT-1 cells; experiment: Apoptosis by fluorescence-based detection of activated caspases (microscopy, flow cytometry); assay type: cell-based, human; details: FIG. 4B
Text: (§2) FIGS. 4A-C depict the mechanism of cell death induced by α-MSH and inhibition by ASIP, which blocks cell death. […] Vulnerable cells appear with higher fluorescence intensity for the marker of apoptosis, while untreated cells remain alive and show only background fluorescence (top-left panel). […] FIG. 4C is a bar chart depicting ASIP blocking α-MSH effects and protecting against cell death.
as §1

[8] = test system: mice; experiment: Induction of synucleinopathy in mice by intranasal α-MSH, gait on rotorod; assay type: in vivo, mouse; details: α-MSH intranasal left nostril every other day for one month
Text: FIGS. 5A-B depict the in vivo induction of synucleinopathy in mice by α-MSH. FIG. 5A is a drawing showing the administration of α-MSH into the left nostril of the mouse and a timeline showing frequency of administration and behavioral testing performed by rotorod. FIG. 5B is a series of rotorod testing photographs of a mouse chronically administered α-MSH by intranasal route for a period of 1 month to induce synucleinopathy (see FIG. 5a).
Three mice were given the inducer, α-MSH, which was administered once every other day for one month through an intranasal route through the left nostril (FIG. 5a), and one mouse not subjected to the α-MSH inducer served as a healthy control. Observations and measurements were taken weekly at the end of α-MSH administration. […] The control mouse not subjected to α-MSH maintained normal gait and leg movement. Gait impairment observed in the three mice given the α-MSH, is characteristic of motor symptoms associated with PD and MSA symptoms. Moreover, the time-dependent intensified serverity of gait impairment after α-MSH administration is indicative of disease progression as measured through manisfestation of worsening physical symptoms. […]
Three mice were given the inducer, α-MSH, through an intranasal route and one mouse was not subjected to α-MSH. The gait of all four mice was monitored every […] after subjection to one month of α-MSH treatment. […]

[9] = test system: substantia nigra of mouse; experiment: Immunohistochemistry of mouse brain sections for alpha-synuclein; assay type: in vivo; details: mouse given α-MSH in left nostril, anti-mouse alpha synuclein staining, FIG. 6a
Experimental: FIGS. 6A-B are immunohistochemistry microscopy photographs of brain sections stained with anti-mouse alpha synuclein (BD Biosciences, Clone 42/α-Synuclein).
Three mice were given the inducer, α-MSH, which was administered once every other day for one month through an intranasal route through the left nostril (FIG. 5a), and one mouse not subjected to the α-MSH inducer served as a healthy control. Observations and measurements were taken weekly at the end of α-MSH administration. […] The control mouse not subjected to α-MSH maintained normal gait and leg movement. Gait impairment observed in the three mice given the α-MSH, is characteristic of motor symptoms associated with PD and MSA symptoms. Moreover, the time-dependent intensified serverity of gait impairment after α-MSH administration is indicative of disease progression as measured through manisfestation of worsening physical symptoms. A cardinal feature of synucleinopathy pathology is the presence of aggregated intracellular alpha-synuclein, which is the predominant constituent of Lewy bodies and glial cytoplasmic inclusions (GCIs) observed in the affected regions of the brain in PD, MSA and DLB. […] Pathology was absent in the control mouse not subjected to α-MSH (FIG. 6b).

[10] = test system: MNT-1 cells; experiment: ASIP reversal of α-MSH induced block in autophagy, melanin content; assay type: cell-based, human; details: α-MSH exposed cells treated with ASIP vs not treated, FIG. 3
Experimental: (§3) FIGS. 2C, 3, and 4C show human ASIP inhibiting the effects of α-MSH in cellular models and is an effective therapeutic for preventing and reversing synuclein pathology. ASIP was tested as a therapeutic for synucleinopathy in the in vitro cellular model of neuromelanin-containing neurons modeled by MNT-1 cells. […] Immunofluorescence from the α-MSH and ASIP treated cells display similar quantity of α-synuclein compared to healthy, non-treated cells. This indicates ASIP inhibits the accumulation and aggregation of intracellular α-synuclein, and additionally has the potential to reverse the accrual of toxic protein aggregates and reverse impairment of autophagy. […] Thus, as a therapeutic ASIP promotes an environment ideal for recovery and is amenable for cell restoration strategies. Based on the in vitro cellular model presented herein, ASIP halts induction and progression of synucleinopathy and reverses the disease.

[11] = test system: MNT-1 cells; experiment: Cell viability of α-MSH exposed cells with ASIP; assay type: cell-based, human; details: α-MSH exposed cells with 200 nM ASIP vs without ASIP, FIG. 4C
Text: as §2, §3

Molecule: COc1ccc2[nH]cc(CCNC(C)=O)c2c1 [melatonin]
- disease symptoms in patients [1]: improved PD symptoms
- locomotor deficits [2]: stalled locomotor deficits

Molecule: Pro-Leu-Gly-NH2
- disease symptoms in patients [1]: improvement in disease symptoms

Molecule: α-Melanocyte Stimulating Hormone [α-MSH]
- rapamycin-induced cellular autophagy / melanin levels [3]: disabled; also recorded: lower melanin levels; also recorded: reduced
- starvation-induced autophagy / melanin formation [4]: lack of melanin; also recorded: melanin formation is not observed; also recorded: inhibited autophagy and melanin formation
- accumulation and aggregation of intracellular α-synuclein ([5]; MNT-1 cells exposed to α-MSH vs not exposed, FIG. 2B): inducing accumulation and aggregation of α-synuclein; also recorded: increase in intensity of immunofluorescence staining of intracellular α-synuclein
- glucose consumption [6]: glucose consumption is observed to be faster; also recorded: consume glucose faster than untreated cells
- apoptotic events (flow cytometry, marker of apoptosis) ([7]; 4, 7 and 9 days of exposure to α-MSH vs medium alone): increasing apoptotic events
- cell death by apoptosis (fluorescence microscopy) ([7]; α-MSH exposed cells, 6 days): die by apoptosis
- gait / leg impairment ([8]; four, six and eight weeks after): progressive leg impairment; also recorded: impaired/weakened right hind leg, loss of symmetry in gait; also recorded: progressive weakness and deteriorating motor control
- gait / leg impairment ([8]; two weeks after end of treatment): No apparent leg impairment; also recorded: normal gait; also recorded: No significant gait impairment
- alpha-synuclein aggregation in substantia nigra [9]: synuclein pathology was observed in the substantia nigra; also recorded: alpha-synuclein aggregation observed in a neuron located in the left substantia nigra; also recorded: Lewy body-like aggregate of alpha-synuclein in the left substantia nigra

Molecule: β-Melanocyte Stimulating Hormone [β-MSH]
- skin darkening in treated patients ([1]; patients treated with β-MSH (Cotzias, 1967)): darkenening of skin of treated patients
- disease symptoms in patients [1]: worsening of Parkinsonian symptoms

B1: Agouti Signaling Protein (protein, UniProt P42127 23-132, looked up)
Agouti-signaling protein: HLPPEEKLRDDRSLRSNSSVNLLDVPSVSIVALNKKSKQIGRKAAEKKRSSKKEASMKKVVRPRTPLSAPCVATRNSCKPPAPACCDPCASCQCRFFRSACSCRVLSLNC
- inhibition of α-MSH induced α-synuclein accumulation ([5]; MNT-1 cells exposed to α-MSH and ASIP, FIG. 2C): halt α-synuclein accumulation and aggregation induced by α-MSH; also recorded: inhibition of α-MSH induced accumulation of α-synuclein; also recorded: decreased levels of α-synuclein measured by immunofluorescence
- melanin content (restoration of cellular autophagy) [10]: restoring melanin production; also recorded: increase in melanin content; also recorded: restoration of melanin levels
- cell viability (protection against cell death) [11]: protects against cell death; also recorded: viability is higher; also recorded: Cells maintain viability
